Data reported in US20130315830A1, “PSMA as a BioMarker for Androgen Activity in Prostate Cancer” (Cornell University, priority 2012, published 2013).

Test system: LAPC-4, expressing wild-type AR

C[C@]12CCC(=O)C[C@@H]1CC[C@@H]1[C@@H]2CC[C@]2(C)[C@@H](O)CC[C@@H]12 [DHT, 5α-dihydrotestosterone]
PSMA expression: low level of PSMA
